From patent US6462024B1, “Use of inhibitors of the sodium-hydrogen exchanger for the production of a medicament for decreasing undesired effects of substrates of the heart” (Aventis Pharma Deutschland GmbH, priority 1997, dated 2002)
Entries after “also recorded” stand apart in the source; their conditions may differ.

System: isolated functioning rat heart
Experiment: low flow ischemia and reperfusion in the isolated functioning rat heart (working-heart mode)
Design: species or system Wistar-Kyoto rats
Conditions: for Incidence of ventricular fibrillations (VF) / Mean duration of ventricular fibrillations (VF) / Incidence of ventricular tachycardias (VT) / Mean duration of ventricular tachycardias and fibrillations (VT + VF): cariporide 1 μmol/l, Rulide 20 mg/kg oral; for incidence of ventricular fibrillation during the reperfusion phase / length of ventricular arrhythmias during the reperfusion phase: macrolide (Rulide) group versus macrolide-pretreated hearts treated with cariporide
Procedure: All investigations were carried out using hearts of Wistar-Kyoto rats (300-400 g body weight, BW). The rats were kept on a standard diet and had free access to water. The rats were anesthetized with pentobartital (60 mg/kg, i.p.), heparinized (500 I.U./100 g BW i.p.) and respirated with room air via a cannula which was inserted into the trachea. The thorax was then opened, and the heart was removed and placed in a 4° C. physiological solution. After cannulation of the aorta, the hearts were suspended in the unit and perfused in a retrograde manner according to the Langendorff method with an oxygenated (95% O2, 5% CO2), noncirculating Tyrode solution (in mmol/l: NaCl 124.6; KCl 4.0; CaCl2 2.2; MgCl2 1.1; NaHCO3 24.9; NaH2PO4 0.3; glucose 11.1) using a perfusion pressure of 51 mm Hg. The pulmonary artery and the left auricle were then cannulated and all pulmonary veins were ligated close to the auricle. After an equilibration phase of 15 minutes, the retrograde perfusion was changed into an anterograde perfusion (working-heart mode). At the same time, the filling pressure was adjusted to 11 mm Hg and the afterload to 51 mm Hg. The hearts were paced during the entire experiment at a frequency of 5 Hz. After 15 minutes in the working mode, the coronary flow was reduced by 90% in order to include a global low flow ischemia. The aortic pressure drops from 51 to 11 mm Hg in the course of this. This situation represents an angina pectoris attack in the patient. The low flow ischemia lasted 30 minutes. The hearts were then reperfused for 15 minutes in the Langendorff mode and for a further 15 minutes in the working mode. All animals received oral Rulide (macrolide, 20 mg/kg) dissolved in 1 ml of olive oil, or only 1 ml of olive oil (control), before the experiments. The Na^+/H^+ exchange inhibitor cariporide (1 μmol/l) and its vehicle (Tyrode solution) were added directly to the perfusion solution, i.e. immediately before the latter flows into the heart. The computer-controlled infusion of cariporide and the vehicle solution was begun 15 minutes before low flow ischemia and lasted for the entire experiment. The infusion quantity was 1:100th of the heart minute volume. The following parameters were measured 15 minutes before ischemia and at the end of the reperfusion phase: left ventricular pressure (LVP), left auricle pressure (LAP), aortic pressure (AP), heart-time volume (HTV), coronary flow (CF), aortic flow (AF), heart rate (HR), contractility (dP/dtmax), left ventricular pressure increase (LVPI) and the external heart work (EHW). From these values, the recovery (values after reperfusion based on the starting values before ischemia in %) was calculated. Moreover, the ECG was recorded during the entire experiment and the sum of the individual arrhythmia intervals (ventricular tachycardias and ventricular fibrillations) over the entire experimental period was formed.

[1] = pretreatment with Rulide, ischemia and reperfusion

Compound	effect on the arrhythmias during ischemia (during ischemia)	Incidence of ventricular fibrillations (VF) (during ischemia)	Mean duration of ventricular fibrillations (VF) (during ischemia)	Incidence of ventricular fibrillations (VF) (during reperfusion)	Incidence of ventricular tachycardias (VT) (during reperfusion)	Mean duration of ventricular tachycardias and fibrillations (VT + VF) (during reperfusion)	incidence of ventricular fibrillation during the reperfusion phase	length of ventricular arrhythmias during the reperfusion phase	cardiotoxic effect of the macrolide (pretreatment of the heart with cariporide, ischemia and reperfusion)	incidence and duration of ventricular arrhythmias compared with the control group [1]	recovery compared with the control group [1]
CC(C)c1ccc(C(=O)NC(=N)N)cc1S(C)(=O)=O [Cariporide (HOE642), cariporide]	no effect	33%	38 ± 26 s	0%	100%	204 ± 32 s	38%	198 s	completely prevented; also recorded: completely inhibits		
CC[C@H]1OC(=O)[C@H](C)[C@@H](O[C@H]2C[C@@](C)(OC)[C@@H](O)[C@H](C)O2)[C@H](C)[C@@H](O[C@@H]2O[C@H](C)C[C@H](N(C)C)[C@H]2O)[C@](C)(O)C[C@@H](C)/C(=N\OCOCCOC)[C@H](C)[C@@H](O)[C@]1(C)O [Rulide, reference compound]		100%	181 ± 79 s	100%	100%	1709 ± 319 s	100%	1709 s		increase in the incidence and the duration of ventricular arrhythmias	further impairment of recovery
